For ten compounds, EC50 and Emax results are on record in patent publication US20240208992A1, “MACROCYCLES AS CFTR MODULATORS” (Idorsia Pharmaceuticals Ltd, priority 2021, published 2024).

The assay concerns the target human F508del-CFTR (Homo sapiens, UniProt P13569, DEL508-508). As to the kind of experiment: F508del-CFTR cell surface expression (corrector activity), DiscoveRx ß-galactosidase complementation chemiluminescence assay in recombinant U2OS cell line.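 On all read-outs here: U2OS cells co-expressing ProLink-tagged F508del-CFTR and a membrane-anchored enzyme acceptor, where more surface CFTR restores β-galactosidase activity measured by chemiluminescence.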 The conditions noted are these: U2OS cells, 16h compound incubation; for EC50: EC50, F508del-CFTR cell surface expression, geomean of several measurements; for Emax: U2OS, in relation to the Emax of the corrector lumacaftor (=100%), arithmetic mean.

Chain of human F508del-CFTR (P13569 with tags, fused parts or gaps DEL508-508): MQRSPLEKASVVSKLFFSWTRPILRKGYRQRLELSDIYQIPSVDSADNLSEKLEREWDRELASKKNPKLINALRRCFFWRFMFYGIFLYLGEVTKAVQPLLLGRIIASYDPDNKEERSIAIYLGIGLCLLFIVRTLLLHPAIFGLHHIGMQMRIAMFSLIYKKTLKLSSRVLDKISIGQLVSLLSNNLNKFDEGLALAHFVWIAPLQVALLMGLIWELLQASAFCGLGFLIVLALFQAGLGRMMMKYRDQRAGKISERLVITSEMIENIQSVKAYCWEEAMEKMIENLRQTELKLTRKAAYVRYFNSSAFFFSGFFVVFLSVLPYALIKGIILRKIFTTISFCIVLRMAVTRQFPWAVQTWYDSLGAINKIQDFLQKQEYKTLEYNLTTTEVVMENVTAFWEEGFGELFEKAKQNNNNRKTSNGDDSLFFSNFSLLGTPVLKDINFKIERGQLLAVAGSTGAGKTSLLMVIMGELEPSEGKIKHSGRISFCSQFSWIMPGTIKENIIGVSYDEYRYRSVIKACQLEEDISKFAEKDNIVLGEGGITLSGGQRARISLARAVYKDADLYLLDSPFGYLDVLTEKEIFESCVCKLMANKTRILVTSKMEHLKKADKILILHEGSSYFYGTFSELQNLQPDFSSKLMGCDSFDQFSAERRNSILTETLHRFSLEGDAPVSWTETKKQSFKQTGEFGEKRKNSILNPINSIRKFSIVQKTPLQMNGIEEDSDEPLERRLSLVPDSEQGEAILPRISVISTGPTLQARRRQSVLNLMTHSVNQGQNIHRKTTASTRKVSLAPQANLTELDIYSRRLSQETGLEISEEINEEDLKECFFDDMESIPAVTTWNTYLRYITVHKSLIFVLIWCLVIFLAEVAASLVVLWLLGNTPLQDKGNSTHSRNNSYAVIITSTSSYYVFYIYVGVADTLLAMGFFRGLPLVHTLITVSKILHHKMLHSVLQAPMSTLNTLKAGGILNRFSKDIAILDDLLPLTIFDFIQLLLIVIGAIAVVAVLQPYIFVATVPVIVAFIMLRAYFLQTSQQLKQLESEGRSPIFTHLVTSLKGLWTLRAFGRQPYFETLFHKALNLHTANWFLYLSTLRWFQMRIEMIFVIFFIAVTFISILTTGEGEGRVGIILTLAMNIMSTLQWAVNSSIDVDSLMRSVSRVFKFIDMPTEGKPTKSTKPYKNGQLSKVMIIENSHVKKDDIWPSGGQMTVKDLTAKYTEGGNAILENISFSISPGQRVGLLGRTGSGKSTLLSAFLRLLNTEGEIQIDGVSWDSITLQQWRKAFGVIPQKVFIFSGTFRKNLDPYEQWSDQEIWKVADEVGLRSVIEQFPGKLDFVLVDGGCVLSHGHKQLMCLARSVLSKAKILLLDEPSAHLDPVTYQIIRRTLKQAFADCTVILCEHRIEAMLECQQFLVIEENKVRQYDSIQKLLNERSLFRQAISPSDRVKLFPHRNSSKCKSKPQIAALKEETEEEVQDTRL

In the case of `COc1cccc(CCNC(=O)[C@@H]2CC(=O)N(C)[C@@H](CC(C)C)C(=O)N(C)[C@H](C)C(=O)N[C@H](Cc3ccccc3)COc3nc(C)nc(OC)c3C(=O)N2)c1` [Example 860, (7S,11S,14R,17R)-17-benzyl-11-isobutyl-4-methoxy-N-(3-methoxyphenethyl)-2,10,13,14-tetramethyl-5,9,12,15-tetraoxo-5,6,7,8,9,10,11,12,13,14,15,16,17,18-tetradecahydropyrimido[5,4-p][1]oxa[4,7,10,14]tetraazacycloheptadecine-7-carboxamide], the EC50 stood at 578 nM and the maximal effect (Emax) was 288%.
The like results for `COc1cc(C[C@@H]2C(=O)N[C@H](Cc3ccccc3)COc3ccnc(OC)c3C(=O)N[C@H](C(=O)NCCc3noc(C4CC4)n3)CC(=O)N(C)[C@@H](CC(C)C)C(=O)N2C)on1` [Example 861, (3R,6R,9S,13S)-3-benzyl-N-(2-(5-cyclopropyl-1,2,4-oxadiazol-3-yl)ethyl)-9-isobutyl-16-methoxy-6-((3-methoxyisoxazol-5-yl)methyl)-7,10-dimethyl-5,8,11,15-tetraoxo-2,3,4,5,6,7,8,9,10,11,12,13,14,15-tetradecahydropyrido[3,4-p][1]oxa[4,7,10,14]tetraazacycloheptadecine-13-carboxamide] were, in that order, 722 nM and 384%.
In the same order, the values of `COc1nc(C)nc2c1C(=O)N[C@H](C(=O)NCCc1cc(C3CC3)no1)CC(=O)N(C)[C@@H](CC(C)C)C(=O)N(C)[C@H](C)C(=O)N[C@H](Cc1ccccc1)CO2` [Example 862, (7S,11S,14R,17R)-17-benzyl-N-(2-(3-cyclopropylisoxazol-5-yl)ethyl)-11-isobutyl-4-methoxy-2,10,13,14-tetramethyl-5,9,12,15-tetraoxo-5,6,7,8,9,10,11,12,13,14,15,16,17,18-tetradecahydropyrimido[5,4-p][1]oxa[4,7,10,14]tetraazacycloheptadecine-7-carboxamide] are 921 nM and 335%.
In the case of `COc1nccc2c1C(=O)N[C@H](C(=O)NCCc1noc(C3CC3)n1)CC(=O)N(C)[C@@H](CC(C)C)C(=O)N1CCCCC[C@@H]1C(=O)N[C@H](Cc1ccccc1)CO2` [Example 863, (7S,11S,18aR,21R)-21-benzyl-N-(2-(5-cyclopropyl-1,2,4-oxadiazol-3-yl)ethyl)-11-isobutyl-4-methoxy-10-methyl-5,9,12,19-tetraoxo-5,6,7,8,9,10,11,12,14,15,16,17,18,18a,19,20,21,22-octadecahydroazepino[2,1-f]pyrido[3,4-p][1]oxa[4,7,10,14]tetraazacycloheptadecine-7-carboxamide], the concentration giving a half-maximal response (EC50) turned out to be 587 nM and the Emax amounted to 326%.
The like results for `COc1nccc2c1C(=O)N[C@H](C(=O)NCCc1noc(C3CC3)n1)CC(=O)N(C)[C@@H](CC(C)C)C(=O)N(C)[C@H](CCc1nc(C3CC3)no1)C(=O)N[C@H](Cc1ccccc1)CO2` [Example 864, (3R,6R,9S,13S)-3-benzyl-N-(2-(5-cyclopropyl-1,2,4-oxadiazol-3-yl)ethyl)-6-(2-(3-cyclopropyl-1,2,4-oxadiazol-5-yl)ethyl)-9-isobutyl-16-methoxy-7,10-dimethyl-5,8,11,15-tetraoxo-2,3,4,5,6,7,8,9,10,11,12,13,14,15-tetradecahydropyrido[3,4-p][1]oxa[4,7,10,14]tetraazacycloheptadecine-13-carboxamide] were, in that order, 617 nM and 385%.
The like results for `COc1cccc(CCNC(=O)[C@@H]2CC(=O)N(C)[C@@H](CC(C)C)C(=O)N(C)[C@H](C(C)(C)C)C(=O)N[C@H](Cc3ccccc3)COc3cc(C)nc(OC)c3C(=O)N2)c1` [Example 865, (3R,6R,9S,13S)-3-benzyl-6-(tert-butyl)-9-isobutyl-16-methoxy-N-(3-methoxyphenethyl)-7,10,18-trimethyl-5,8,11,15-tetraoxo-2,3,4,5,6,7,8,9,10,11,12,13,14,15-tetradecahydropyrido[3,4-p][1]oxa[4,7,10,14]tetraazacycloheptadecine-13-carboxamide] were, in that order, 103 nM and 356%.
With `COc1nc(C)cc2c1C(=O)N[C@H](C(=O)NCCc1cc(C)no1)CC(=O)N(C)[C@@H](CC(C)C)C(=O)N(C)[C@H](C(C)(C)C)C(=O)N[C@H](Cc1ccccc1)CO2` [Example 866, (3R,6R,9S,13S)-3-benzyl-6-(tert-butyl)-9-isobutyl-16-methoxy-7,10,18-trimethyl-N-(2-(3-methylisoxazol-5-yl)ethyl)-5,8,11,15-tetraoxo-2,3,4,5,6,7,8,9,10,11,12,13,14,15-tetradecahydropyrido[3,4-p][1]oxa[4,7,10,14]tetraazacycloheptadecine-13-carboxamide], the EC50 is 337 nM and the Emax is 324%.
In the same order, the values of `COCCc1ccc(-c2noc(C[C@@H]3C(=O)N[C@H](Cc4ccccc4)COc4ccnc(OC)c4C(=O)N[C@H](C(=O)NCCc4noc(C5CC5)n4)CC(=O)N(C)[C@@H](CC(C)C)C(=O)N3C)n2)cc1` [Example 867, (3R,6R,9S,13S)-3-benzyl-N-(2-(5-cyclopropyl-1,2,4-oxadiazol-3-yl)ethyl)-9-isobutyl-16-methoxy-6-((3-(4-(2-methoxyethyl)phenyl)-1,2,4-oxadiazol-5-yl)methyl)-7,10-dimethyl-5,8,11,15-tetraoxo-2,3,4,5,6,7,8,9,10,11,12,13,14,15-tetradecahydropyrido[3,4-p][1]oxa[4,7,10,14]tetraazacycloheptadecine-13-carboxamide] are 31 nM and 413%.
Regarding `COCCc1ccc(-c2noc(C[C@@H]3C(=O)N[C@H](Cc4ccccc4)COc4ccnc(OC)c4C(=O)N[C@H](C(=O)NCCc4cc(OC)no4)CC(=O)N(C)[C@@H](CC(C)C)C(=O)N3C)n2)cc1` [Example 868, (3R,6R,9S,13S)-3-benzyl-9-isobutyl-16-methoxy-6-((3-(4-(2-methoxyethyl)phenyl)-1,2,4-oxadiazol-5-yl)methyl)-N-(2-(3-methoxyisoxazol-5-yl)ethyl)-7,10-dimethyl-5,8,11,15-tetraoxo-2,3,4,5,6,7,8,9,10,11,12,13,14,15-tetradecahydropyrido[3,4-p][1]oxa[4,7,10,14]tetraazacycloheptadecine-13-carboxamide], the EC50 is 18 nM and the Emax was 397%.
In the same order, the values of `COc1cc2c(c(OC)n1)C(=O)N[C@H](C(=O)NCCc1cc(C)no1)CC(=O)N(C)[C@@H](CC(C)C)C(=O)N1CCCC[C@@H]1C(=O)N[C@H](Cc1ccccc1)CO2` [Example 869, (7S,11S,17aR,20R)-20-benzyl-11-isobutyl-2,4-dimethoxy-10-methyl-N-(2-(3-methylisoxazol-5-yl)ethyl)-5,9,12,18-tetraoxo-5,6,7,8,9,10,11,12,15,16,17,17a,18,19,20,21-hexadecahydro-14H-dipyrido[2,1-f:3′,4′-p][1]oxa[4,7,10,14]tetraazacycloheptadecine-7-carboxamide] are 358 nM and 305%.
